Data reported in patent US11566044B2, “Disulfide bond containing compounds and uses thereof” (THE UNIVERSITY OF QUEENSLAND, priority 2017, dated 2023).

Test: DTNB assay: stability of the S—S bond to 20% v/v piperidine in DMF (Fmoc-SPPS conditions)
Assay type: physicochemical
Conditions: 20% v/v piperidine in DMF for 6 h, absorbance at 308 and 412 nm
Source text: Prior to exploring further applications of the novel disulfide-bridged amino acid, the stability of its —S—S— bond to reagents/conditions employed during Fmoc-SPPS had to be established. For each deprotection step performed during peptide synthesis, a resin bound random amino acid is exposed to basic reagents with 20% v/v piperidine in DMF. —S—S— bond stability to these basic conditions was therefore trialled using a di-Boc protected disulfide bridged amino acid of the invention (compound 11), since the Boc protecting groups themselves would be stable to the basic conditions. […] Premature reduction of the disulfide-containing amino acid by piperidine would lead to the formation of free thiols that react with DTNB releasing NTB^2−, which can be readily identified spectrophotometrically at 412 nm.
DTNB (1 mg) was dissolved in 1 mL of methanol and a 1 mg/mL stock solution was prepared. A DTNB calibration curve was prepared by measurement of the absorbance (λmax=308 nm) over a range of concentrations (5, 10, 15, 20, and 25 μg/mL) in the presence of 20% v/v piperidine in DMF (100 μL). […]
Stability of the disulfide-bridged amino acid (compound 11) to basic conditions was assessed next, where it was first incubated with 20% v/v piperidine in DMF for up to 6 h and from that different concentrations of samples were prepared. […]

Base stability of the S—S bond (free thiols generated/detected): no free thiols were generated/detected
SMILES: COC(=O)[C@H](CSSC(C)(C)CNC(=O)OC(C)(C)C)NC(=O)OC(C)(C)C [compound 11, Boc-Cys(S—SC(CH3)2CH2NH(Boc))—OCH3]
